Source: PubChem BioAssay AID602273 (Broad Institute, 2012)
Activity calls are given as the source filed them. No rule for the calls is given here.

Assay: rescue of alpha-synuclein yeast toxicity, dose response, S. cerevisiae, plate reader, cherry-pick (AID 602273)
Settings: S. cerevisiae alpha-synuclein toxicity rescue, OD600 growth, 24 h; at 12 µM (top of the series)

| Structure (SMILES) | growth rescue activity |
| --- | --- |
| O=C(NC1C(=O)NNC1c1ccccc1)c1ccccc1 (stereo unspecified) | 8.13% (inactive) |

Same assay, conditions: S. cerevisiae alpha-synuclein toxicity rescue, OD600 growth, 24 h; at 26 µM (top of the series)

| Structure (SMILES) | growth rescue activity |
| --- | --- |
| CC1CC(C)(C)N(C(=O)NC2CCCCC2)c2ccccc21 (stereo unspecified) | 12.6% (inactive) |
| Cc1nc(SCCOc2ccc(F)cc2)c2ccccc2n1 | -1.07% (inactive) |
| Cc1[nH]n(-c2ccccc2)c(=O)c1C=NCCc1ccccc1 | 5.9% (inactive) |
| Cc1ccc(CN(C)C(=O)C2CCC(=O)N(CCc3ccccc3)C2)o1 (stereo unspecified) | 1.41% (inactive) |
| Nc1nnc(SCc2c(F)cccc2Cl)s1 | 4.49% (inactive) |
| Nc1ccc(Sc2cnn(-c3ccccc3)c(=O)c2Cl)cc1 | 1.77% (inactive) |
| COc1ccc2cc(/C=C/C(=O)N3CCN(CC(=O)N4CCCCCC4)CC3)ccc2c1 | -2.63% (inactive) |
| CCn1c(SCC(=O)c2ccc(Cl)cc2)nnc1-c1ccoc1C | 2.33% (inactive) |
| CCC1(C)N=C(N)Nc2nc3cc(C)c(C)cc3n21 (stereo unspecified) | -2.62% (inactive) |
| COc1ccc2c(c1OC)C(=O)OC2Nc1nc(-c2ccccc2)cs1 (stereo unspecified) | 3.17% (inactive) |
| O=c1[nH]c2c(s1)C=Nc1ccccc1N2 | 4.6% (inactive) |
| O=C(Nc1ccccc1C(=O)OCC(=O)c1c[nH]c2ccccc12)c1ccco1 | 5.29% (inactive) |
| O=C1C2CC=CCC2C(=O)N1Cc1nnc(-c2ccc(Cl)cc2)o1 (stereo unspecified) | -2.43% (inactive) |
| Cc1ccc(CNC(=O)CSc2ccsc2[N+](=O)[O-])cc1 | 2.48% (inactive) |
| CCCCC(=O)OCC(=O)c1[nH]c(C)c(C(=O)OCC)c1C | 2.65% (inactive) |
| CC(C)OC(=O)c1ccc(COc2ccc3ccc(=O)oc3c2)o1 | 2.08% (inactive) |
| COc1ccc(S(=O)(=O)n2nc(OC(=O)c3ccccc3Br)cc2N)cc1 | -9.27% (inactive) |
| CCOC(=O)C1(Cc2ccc(OC)cc2)CCN(C(=O)c2cc3ccccc3[nH]2)CC1 | 1.19% (inactive) |
| O=c1c2ccccc2[nH]c(=S)n1CCC1=CCCCC1 | 21.3% (inactive) |
| c1ccc(N2CC3CCc4ccccc4C3=N2)cc1 (stereo unspecified) | 11.6% (inactive) |
| O=C(O)CC1=C(Nc2ccccc2)C(=O)N(c2ccccc2)C1c1ccc(Cl)cc1 (stereo unspecified) | 7.05% (inactive) |
| O=C(NCc1cccc(F)c1)c1noc2c1CCCC2 | 10.6% (inactive) |
| O=C(CC12CCC(CC1)C2)NCc1ccc2c(c1)OCO2 | 2.83% (inactive) |
| CC(C)C(=O)N1CCC(n2nccc2NC(=O)CCOc2ccccc2)CC1 | -1.45% (inactive) |

| Structure (SMILES) | growth rescue activity |
| --- | --- |
| Cc1ccc(CN2CCN(CC(C)C)C(CCO)C2)s1 (stereo unspecified) | -1.18% (inactive) |
| O=C1C2CC=CCC2C(=O)N1c1ccc(NCCc2ccccc2)c([N+](=O)[O-])c1 (stereo unspecified) | 11.8% (inactive) |
| Cc1ccc(O)c(CNc2nccs2)c1 | 12% (inactive) |
| CC(C)(CNC(=O)/C=C/c1ccc(F)cc1)CNC(=O)/C=C/c1ccc(F)cc1 | 0.36% (inactive) |
| C[C@H](NC(=O)[C@@H]1CSC2c3ccccc3C(=O)N21)C(=O)NCCc1ccccc1 (stereo partly specified) | -5.08% (inactive) |
| CC(C)(C)c1ccc(COc2ccsc2C(=O)O)cc1 | -21.6% (inactive) |
| CC(=O)c1ccc(NC(=O)CCCN2C(=O)/C(=C/C(C)=C/c3ccccc3)SC2=S)cc1 | -5.11% (inactive) |
| O=c1[nH]c2ccccc2n1CCC1CCCCC1 | 8.15% (inactive) |
| O=c1[nH]n(CC2COC3(CCCCC3)O2)c(=O)c2ccccc12 (stereo unspecified) | -3.22% (inactive) |
| CCOC(=O)C1=NN(C(=O)c2ccccc2)C(O)(c2ccc(C)cc2)C1 (stereo unspecified) | 10.9% (inactive) |
| O=c1[nH][nH]c(-c2ccccc2O)c1C(C[N+](=O)[O-])c1ccccc1 (stereo unspecified) | 0.55% (inactive) |
| CCN1C(=O)CC(N2CCN(c3ccc(C(=O)c4ccccc4)cc3)CC2)C1=O (stereo unspecified) | -0.853% (inactive) |
| CCC(=O)Nc1cccc(C(=O)/C=C/c2ccc(F)cc2)c1 | -9.73% (inactive) |
| C=CCn1c(C)cc(C(=O)CSc2nc(N)cc(N)n2)c1C | 0.814% (inactive) |
| Cc1ccc(O)c(NC(=O)c2onc(C)c2Cl)c1 | 6.44% (inactive) |
| Cc1csc2nc(CCNS(=O)(=O)c3cccs3)cn12 | 3.48% (inactive) |
| C/C(=N\NC(=O)c1ccoc1C)c1cccc2ccccc12 | 8.58% (inactive) |
| O=C(NC1CCSc2ccccc21)c1ccccc1Cl (stereo unspecified) | -4.11% (inactive) |
| Cc1ccc(-n2cc(CNCCN3CCOC3=O)c(-c3cccc(C)c3)n2)cc1 | 0.352% (inactive) |
| COc1ccc(CCNc2oc(-c3ccccc3OC)nc2C#N)cc1 | 1.38% (inactive) |
| O=C1NC(=O)[C@]2(Cc3ccccc3N3CCN(c4ccccc4)CC32)C(=O)N1Cc1ccccc1 (stereo partly specified) | 3.15% (inactive) |
| Cn1c(=O)c(/C=C/c2ccc(F)cc2)nc2ccccc21 | 8.65% (inactive) |
| O=C1NCC2=C1C(c1ccc(Br)cc1)Nc1ccccc1N2 (stereo unspecified) | -8.45% (inactive) |
| Cc1[nH]c2ccccc2c1/C=C(\C#N)C(=O)NCC1CCCO1 (stereo unspecified) | 4.73% (inactive) |

| Structure (SMILES) | growth rescue activity |
| --- | --- |
| Cc1cccc(-c2cc(C(=O)Nc3ccncc3)c3ccccc3n2)c1 | 1.56% (inactive) |
| CCN(CC)CCCNC(=O)CSc1c2c(nc3cc(Cl)ccc13)CCCC2 | 3.73% (inactive) |
| CC1(C)CC(=O)C2=C(C1)Nc1cc3c(cc1C2c1ccc2c(c1)OCO2)OCO3 (stereo unspecified) | 11.9% (inactive) |
| O=C(CSc1ccc(Cl)cc1)N1CCN(c2c(Cl)cccc2[N+](=O)[O-])CC1 | -19.7% (inactive) |
| O=C1S/C(=C\c2ccc(N3CCOCC3)o2)C(=O)N1Cc1c(F)cccc1Cl | -0.523% (inactive) |
| Cc1cc(C)n(CC(O)COc2ccc(Cl)cc2Cl)n1 (stereo unspecified) | 9.05% (inactive) |
| O=C1NC(=S)S/C1=C/c1ccc(OC(=O)c2ccco2)cc1 | 9.87% (inactive) |
| Cc1cc(-c2nnc(CCC(=O)N(C)Cc3cccc4ccccc34)o2)no1 | 8.5% (inactive) |
| CC(C)(C)c1cc(NC(=O)CCSc2nnc3ccccn23)cc(C(C)(C)C)c1 | 3.55% (inactive) |
| CC(=O)Cc1cc(O)c2ccccc2c1OC(=O)c1ccccc1 | -0.443% (inactive) |
| O=C(/C=C/Sc1ccccc1)c1ccccc1 | 3.99% (inactive) |
| CN(CCC1CCCCO1)C(=O)CCc1nnc(CCCCc2ccccc2)o1 (stereo unspecified) | 1.7% (inactive) |
| O=C(O)CSc1nc2ccccc2nc1Cc1ccccc1F | 5.3% (inactive) |
| CCOC(=O)c1c(C)c(C(=O)Nc2ccc3c(c2)OCO3)c(C)n1C | 2.62% (inactive) |
| Cc1ccc(N2C(=O)SC(N(CC(=O)O)c3ccc(C)cc3)C2=O)cc1 (stereo unspecified) | -2.3% (inactive) |
| Fc1ccccc1-c1nc2nc3ccccc3nc2n1CC1CCCO1 (stereo unspecified) | 11.6% (inactive) |
| CC(OC(=O)/C=C/c1ccc2ccccc2n1)C(=O)NCc1ccccc1 (stereo unspecified) | 3.64% (inactive) |
| COC(=O)C1CCN(C(=O)COC(=O)c2ccc(OC)c(S(=O)(=O)N3CCCc4ccccc43)c2)CC1 | -1.07% (inactive) |
| COc1cccc(-c2nnc(SCc3nc4ccccc4[nH]3)n2N)c1 | 1.34% (inactive) |
| COc1ccc(/C=C2/SC(=O)N(CCNC(=O)C3COc4ccccc4O3)C2=O)cc1 (stereo unspecified) | 5.56% (inactive) |
| O=C(Nc1ccc2c(c1)C(=O)OC2)c1ccc(Cl)cc1 | -1.79% (inactive) |
| O=C(CCC1CCCN(C(=O)c2ccc3cc[nH]c3c2)C1)NCc1ccc(F)c(F)c1 (stereo unspecified) | -2.77% (inactive) |
| CC(=O)Nc1nnc(SCC(=O)c2ccc(F)cc2)s1 | -0.765% (inactive) |
| COc1ccc(C(=O)Cn2c(C(=O)/C=C/c3ccccc3)nc3ccccc32)cc1 | 1.68% (inactive) |

| Structure (SMILES) | growth rescue activity |
| --- | --- |
| CC1(C)CC(=O)C(=Cc2cn(-c3ccccc3)nc2-c2ccccc2)C(=O)C1 | 1.64% (inactive) |
| COc1ccc(C(c2c(O)ccc3ccccc23)N2CCOCC2)c(OC)c1 (stereo unspecified) | -24.5% (inactive) |
| Cc1c(/C=N/NC(=O)c2ccc(Br)o2)cnn1C | -2.43% (inactive) |
| COC(=O)C(C)Sc1ncnc2c1nnn2-c1ccc(F)cc1 (stereo unspecified) | -1.99% (inactive) |
| Cc1cccc(NCc2nc3ccccc3n2C)c1 | -1.89% (inactive) |
| CCCc1nc(SCC(=O)Nc2cc(C)on2)c2ccccc2n1 | 4.07% (inactive) |
| CN(Cc1nnc(-c2ccc(F)cc2)o1)c1ccccc1 | 8.17% (inactive) |
| COc1ccc(OCc2nnnn2-c2ccccc2)cc1 | -3.39% (inactive) |
| O=C(Cc1cccs1)NCc1ccccc1Br | -5.14% (inactive) |
| COc1ccccc1C(=O)CSc1nnc(-c2ccco2)o1 | -9.45% (inactive) |
| COc1ccc(-c2nc3scc(-c4ccccc4)n3n2)cc1 | -0.958% (inactive) |
| CCc1c(C)sc(NC(=O)c2ccc(Br)o2)c1C(=O)OC | 5.35% (inactive) |
| CCOC(=S)SCC(=O)Nc1nc(C)c(C)s1 | 0.308% (inactive) |
| Cc1cc(C(=O)N2CCN(c3ccccn3)CC2)c(C)o1 | -0.518% (inactive) |
| CCOC(=O)CC(=O)CSCC(=O)Nc1ccc(C)cc1 | -1.13% (inactive) |
| Cc1ccc(C(=O)CNc2ccc(Cl)cc2)cc1 | 5.52% (inactive) |
| Cc1ccc(C2=Nc3ccccc3NC(C)(c3ccc(C)o3)C2)o1 (stereo unspecified) | 0.617% (inactive) |
| CCSc1nnc(NC(=O)c2cccnc2Cl)s1 | -4.76% (inactive) |
| C/C(Cn1cnc([N+](=O)[O-])n1)=N\NC(=O)c1ccccc1F | -2.85% (inactive) |
| O=C(NCCN1Cc2ccccc2C1=O)c1cccs1 | -6.05% (inactive) |
| COc1ccc(NC(=O)COC(=O)/C=C/C(=O)OCC(=O)Nc2ccc(OC)c(Cl)c2)cc1Cl | 3.29% (inactive) |
| Cc1cc(C)nc(S/C=C/C(=O)c2ccccc2F)n1 | 1.06% (inactive) |
| Brc1cnc2nc(SC/C=C/c3ccccc3)[nH]c2c1 | 0.58% (inactive) |
